Patent US12514883B2, “Compositions and methods for modulating lipid and steroid metabolism” (The Regents of the University of California, priority 2019, dated 2026)

How the values were obtained:
[1] = Fecal 5-HT levels after 5-HT in drinking water (ELISA); type: in vivo, mice
Procedure: (§1) Water was supplemented with 5-HT (Sigma Aldrich) at 1.5 mg/ml provided ad libitum to mice for 2 weeks. The amount of water consumed and mouse weight were measured on days 3, 7, 10 and 14 of treatment. Mice were sacrificed one day after treatment for 5-HT assays and fecal 16S rDNA profiling was conducted as described below.
Blood samples were collected by cardiac puncture and spun through SST vacutainers (Becton Dickinson) for serum separation. […] Serotonin levels were detected by ELISA according to the manufacturer's instructions (Eagle Biosciences). Readings from tissue samples were normalized to total protein content as detected by BCA assay or the 660 nm Protein Assay (Thermo Pierce).
SPF mice were treated with ampicillin, gentamicin, neomycin and vancomycin (AGNV) in their drinking water at 0.5 g/L for 4 days. […] 5-HT drinking water concentration was determined by calculating the same molar concentration as Flx in drinking water. […] Three days after the final gavage, mice were euthanized by CO2 and the small and large intestines were collected for fluorescence in situ hybridization (FISH) as described below and lumenal contents from the small and large intestines were harvested for 16S rDNA sequencing. […] Tissues were collected and analysed 3 d after the final gavage. […]

[2] = tested on: gut microbiota (Clostridia); assay: Fecal 16S rDNA microbiota profiling after oral 5-HT supplementation; type: in vivo, mice
Procedure: as §1
(§2) Bacterial genomic DNA was extracted from mouse fecal samples using the MoBio PowerSoil Kit. The library was generated according to methods adapted from Capraso J. G., et al., PNAS 108 Suppl 1, 4516-4522 (2011). The V4 regions of the 16S rDNA gene were PCR amplified using individually barcoded universal primers and 30 ng of the extracted genomic DNA. The PCR reaction was set up in triplicate, and the PCR product was purified using the Qiaquick PCR purification kit (Qiagen). In total, 250 ng of purified PCR product from each sample was pooled and sequenced by Laragen, Inc. using the Illumina MiSeq platform and 2×250 bp reagent kit for paired-end sequencing. Operational taxonomic units (OTUs) were chosen by open reference OTU picking based on 97% sequence similarity to the Greengenes 13_5 database. Taxonomy assignment and rarefaction were performed using QIIME1.8.0. Metagenomes were inferred from closed reference OTU tables using PICRUSt.

[3] = tested on: Turicibacter sanguinis MOL361; assay: T. sanguinis growth curve and viability; type: cell-based
Procedure: Scale bars: 10 μm. […] Scale bar denotes 100 um.
Cell density of T. sanguinis at 6, 12, 18, 30, 36, 45 and 48 hours of growth in the presence of 200 uM 5-HT, Flx or both 5-HT and Flx. Treatments were added at the start of culture (e.g. t=0 h).
(§3) Turicibacter sanguinis MOL361 (DSM-14220, DSMZ) was grown in Schaedler's Broth (BD Biosciences) in an anaerobic chamber of 10% carbon dioxide, 5% hydrogen, and balanced nitrogen. Bacteroides thetaiotaomicron (ATCC 29148) was grown in Brain Heart Infusion media (BD Biosciences) supplemented with 5 ug/ml hemin (Frontier Scientific) and 0.5 ug/ml vitamin K1 (Sigma Aldrich) under the same anaerobic conditions. Mouse- and human-derived spore-forming bacterial consortia were isolated by chloroform treatment and propagated in mice.

T. sanguinis [4] = assay: APP+ uptake assay in T. sanguinis; type: cell-based, Turicibacter sanguinis; settings: 200 uM pre-treatment for 30 min
Procedure: (§4) T. sanguinis and B. theta were cultured anaerobically as described above and subcultured for 15-17 h to reach the stationaryphase. Bacterial APP+ transport activity was measured according to the manufacturer's instructions using the Neurotransmitter Transporter Uptake Assay Kit (Molecular Devices). […] Then cells were treated with APP+ for 4 hours at 37° C. Intracellular fluorescence signal was measured at 520 nm using a multimodal plate reader (Biotek Synergy H1). Bacterial suspensions were mounted on slides and imaged using an epifluorescence microscope (EVOS). Images of B. theta were brightened by 90% to resolve fluorescence signal.

CUW_0748 [5] = assay: APP+ uptake in B. thetaiotaomicron expressing CUW_0748; type: cell-based
Procedure: as §4

CUW_0748 [6] = assay: [3H]5-HT uptake in B. thetaiotaomicron expressing CUW_0748; type: cell-based
Procedure: The vector was transformed into E. coli with selection using 100 ug/ml ampicillin and conjugated into B. theta using the E. coli helper plasmid RK231 with 50 ug/ml kanamycin selection. E. coli was killed using 200 ug/ml gentamicin and transconjugant strains were selected using 5 ug/ml erythromycin. Successful conjugation and gene expression were confirmed by PCR and qPCR for CUW_0748 in DNA and RNA extracted from B. theta clones. T. sanguinis or B. theta were cultured anaerobically as described above and subcultured for 15-17 h to reach the stationary phase. […] For T. sanguinis, all uptake reactions were performed at room temperature. For B. theta, uptake reactions were performed at either room temperature or 37° C. Uptake reactions were terminated by washing in ice cold Kreb-Ringer's buffer. Washed T. sanguinis was trapped through 0.45 um PVDF filters on MultiScreenHTS plates connected to a vacuum manifold (EMD Millipore). For B. theta, washed cells were either trapped through 0.45-μm PVDF filters or lysed by incubating in TE buffer plus triton and lysozyme. Extracted filters or lysed cells were incubated in 4 ml Filter Count scintillation fluid (Perkin Elmer) for 1 hour at room temp, and radioactivity was measured using a liquid scintillation counter (Beckman LS6500).

T. sanguinis [7] = assay: Bacterial transcriptomic analysis of T. sanguinis; type: cell-based, Turicibacter sanguinis
Procedure: T. sanguinis was cultured anaerobically as described above and subcultured to mid-log-phase. […] Bacteria were washed with PBS and lysed in TE buffer containing 1.2% Triton X-100 and 15 mg/ml lysozyme. RNA was extracted using the RNAeasy Mini kit with on-column genomic DNA-digest (Qiagen). cDNA synthesis was performed using the qScript cDNA synthesis kit (Quantabio). RNA quality of RIN>8.0 was confirmed using the 4200 Tapestation system (Agilent). rRNA were removed with the Ribo-Zero Bacterial kit (Illumina), RNA was prepared using the TruSeq Stranded RNA kit (Illumina) and 2×75 bp paired end reads were sequenced using the Illumina HiSeq platform by the UCLA Neuroscience Genomics Core. The bacterial RNAseq analysis package Rockhopper was used for quality filtering, mapping against the T. sanguinis PC909 genome and differential expression analysis. […] Heatmaps containing differentially expressed genes with adjusted p<0.05 and coefficient of variation (standard deviation/mean)<3 were generated using the pheatmap package for R. GO term enrichment analysis of differentially expressed genes with adjusted p<0.05 was conducted using DAVID. Functional protein networks were generated with differentially expressed genes with adjusted p<0.05 using STRING. Bacterial FM 4-64 staining and imaging. […] Cells were washed with PBS, fixed in 4% paraformaldehyde, and stained with FM4-64 (5 μg ml−1) and 4′,6-diamidino-2-phenylindole (DAPI; 0.2 μg ml−1) according to the manufacturer's instructions. Cells were wet-mounted on glass slides and cover slips. Images were acquired at 63× using the Zeiss LSM 780 confocal microscope. Images were analysed using Fiji software51 by a researcher blinded to the experimental group. FM 4-64 puncta were counted manually based on circularity and fluorescence intensity. Counts were normalized to cell area, as determined by thresholding of DAPI staining.

T. sanguinis MOL361 [8] = assay: Turicibacter colonization of antibiotic-treated mice (FISH, 16S rDNA); type: in vivo
T. sanguinis MOL361 [9] = assay: 5-HT levels in culture supernatant of T. sanguinis grown in Schaedler broth; type: cell-based, Turicibacter sanguinis; settings: 200 uM fluoxetine, 0-36 hours of growth
Procedure: as §3

T. sanguinis [10] = assay: [3H]NE uptake assay in T. sanguinis; type: cell-based, Turicibacter sanguinis; settings: 30 min pre-treatment, 200 uM fluoxetine
Procedure: T. sanguinis or B. theta were cultured anaerobically as described above and subcultured for 15-17 h to reach the stationary phase. […] Cells were then incubated with 1 μM tritiated 5-HT (plus 0-500 μM unlabelled 5-HT for dose-dependent assays), NE or Trp (PerkinElmer). For T. sanguinis, all uptake reactions were performed at room temperature. For B. theta, uptake reactions were performed at either room temperature or 37° C. Uptake reactions were terminated by washing in ice cold Kreb-Ringer's buffer. Washed T. sanguinis was trapped through 0.45 um PVDF filters on MultiScreenHTS plates connected to a vacuum manifold (EMD Millipore). For B. theta, washed cells were either trapped through 0.45-μm PVDF filters or lysed by incubating in TE buffer plus triton and lysozyme. Extracted filters or lysed cells were incubated in 4 ml Filter Count scintillation fluid (Perkin Elmer) for 1 hour at room temp, and radioactivity was measured using a liquid scintillation counter (Beckman LS6500).

fecal microbiota = assay: Fluoxetine treatment of SPF mice, fecal 16S rDNA sequencing; type: in vivo
Procedure: as §2
Fecal samples were harvested on day 0, 1, 4, 7 or 14 of treatment as indicated in figure legends and processed for 16S rDNA sequencing as described above.

[11] = Lipid clinical chemistry analysis of serum; type: in vivo; settings: antibiotic-treated mice gavaged with T. sanguinis pretreated with 200 μM 5-HT+Flx
From the text: Serum samples were collected from SPF, germfree, Turicibacter-monocolonized or Turicibacter-enriched mice and submitted to Charles River Clinical Pathology for analysis of the lipid species, including total cholesterol, free fatty acids, high-density lipoprotein, low-density lipoprotein and total triglycerides.

T. sanguinis [12] = assay: [3H]5-HT uptake assay in T. sanguinis; type: cell-based, Turicibacter sanguinis; settings: 30 min pre-treatment
[13] = SPF mice gavaged with fluoxetine

Structure (SMILES): NCCc1c[nH]c2ccc(O)cc12 [5-HT, 5-hydroxytryptamine]
- increase of fecal 5-HT levels relative to vehicle-treated controls ([1]; SPF mice, 1.5 mg/ml 5-HT in the drinking water for 2 weeks): 642 fold
- elevation of fecal 5-HT levels over vehicle ([1]; antibiotic-treated mice, 5-HT 24 μg/ml in drinking water): approximately 6 fold
- combined relative abundance of Clostridiales, Clostridiaceae, Ruminococcus and Ruminococcaceae (mean±S.E.M.) ([2]; 5-HT-supplemented mice, fecal microbiota): 86.2±5.8%
- increase of combined relative abundance of Clostridiales, Clostridiaceae, Ruminococcus and Ruminococcaceae ([2]; SPF mice, 1.5 mg/ml 5-HT in drinking water 2 weeks, vs SPF mice): 8.4 fold
- effect on species of Clostridia in fecal microbiota ([2]; oral 5-HT supplementation, SPF mice): substantially enriched
- T. sanguinis survival/viability after short-term (acute) exposure ([3]; 4 h exposure, 200 μM): not affected
- effect on APP+ uptake (import) by T. sanguinis (T. sanguinis [4]): partially decreased
- effect on APP+ uptake conferred by CUW_0748 (CUW_0748 [5]): inhibited
- effect on 1 μM [3H]5-HT uptake conferred by CUW_0748 (CUW_0748 [6]): inhibited
- effect on T. sanguinis gene expression pathways vs vehicle (T. sanguinis [7]; 200 uM 5-HT, 4 hr): downregulated the expression of genes that clustered into pathways for cell differentiation, morphogenesis and sporulation
- number of bacterial genes with significantly altered expression (T. sanguinis [7]; 4 hr exposure, 200 uM, vs vehicle): 71 genes
- differentially expressed genes (q<0.05) downregulated relative to vehicle (T. sanguinis [7]; T. sanguinis treated with 5-HT): 54 genes
- T. sanguinis levels/colonization in the small intestine (T. sanguinis MOL361 [8]; antibiotic-treated SPF mice, bacterial pre-treatment plus same treatment in drinking water): detectable T. sanguinis colonization
- T. sanguinis competitive colonization, bacterial pre-treatment only (T. sanguinis MOL361 [8]; antibiotic-treated mice, no supplementation in drinking water): promoted its competitive colonization

Structure (SMILES): CNCCC(Oc1ccc(C(F)(F)F)cc1)c1ccccc1 (centres unmarked) [fluoxetine]
- effect on decrease of 5-HT levels in the media over time (T. sanguinis MOL361 [9]): prevented
- effect on T. sanguinis growth over long-term culture ([3]; 200 uM, Schaedler broth, up to 48 hours): cytostatic effects
- effect on APP+ uptake (import) by T. sanguinis (T. sanguinis [4]): partially decreased
- effect on bacterial uptake of norepinephrine ([3H]NE) (T. sanguinis [10]): no effect
- change in T. sanguinis gene expression in the absence of 5-HT (T. sanguinis [7]; fluoxetine alone): little change
- effect on T. sanguinis gene expression compared with 5-HT-treated controls (T. sanguinis [7]; fluoxetine with 5-HT, 4 hr): upregulated the expression of genes encoding proteins relevant to efflux transporters, ABC transporters and sporulation
- Turicibacter in fecal microbiota (fecal microbiota; SPF mice gavaged with 10 mg/kg fluoxetine): decreased
- Clostridiaceae in fecal microbiota (fecal microbiota; [13]): decreased
- bacterial alpha diversity of fecal microbiota (fecal microbiota; [13]): no significant differences
- serum triglyceride levels compared with mice colonized with vehicle-treated T. sanguinis [11]: increased

Structure (SMILES): NC[C@H](O)c1ccc(O)c(O)c1 [norepinephrine]
- effect on APP+ uptake (import) by T. sanguinis (T. sanguinis [4]): modest, but not statistically significant, effect

Structure (SMILES): COc1cc2c(cc1OC)C1CC(=O)C(CC(C)C)CN1CC2 (centres unmarked) [tetrabenazine]
- effect on [3H]5-HT uptake by T. sanguinis (T. sanguinis [12]): not observed
